Type in all cases: functional
One experiment relates to Pseudomonas aeruginosa. Description: Antibacterial activity against Pseudomonas aeruginosa ATCC 27853.
Experiment [1] relates to Escherichia coli. Description: Antibacterial activity against Escherichia coli BL21(DE3).
For experiment [2], the system named is Escherichia coli. In words: Antibacterial activity against Escherichia coli BL21(DE3) expressing Pseudomonas aeruginosa APH(3')-2b.

Values after ≈ are worked out from the molar mass of the structure shown.

Broadly, the MIC is the lowest concentration found to suppress growth.

As for `NC[C@@H]1O[C@H](O[C@H]2[C@@H](O)[C@H](O[C@@H]3[C@@H](O)[C@H](N)C[C@H](N)[C@H]3O[C@H]3O[C@H](CN)[C@@H](O)[C@H](O)[C@H]3N)O[C@@H]2CO)[C@H](N)[C@@H](O)[C@@H]1O` [FRAMYCETIN], the MIC was determined as 128 µg/mL (≈ 208 µM) in the experiment on Pseudomonas aeruginosa, 12 µg/mL (≈ 19.5 µM) in the experiment on Escherichia coli [1] and 96 µg/mL (≈ 156 µM) with Escherichia coli [2].
In the same order, the values of `NC[C@H]1O[C@H](O[C@H]2[C@H](O)[C@@H](O[C@H]3O[C@H](CO)[C@@H](O)[C@H](N)[C@H]3O)[C@H](N)C[C@@H]2N)[C@H](N)C[C@@H]1O` [TOBRAMYCIN] are 1 µg/mL (≈ 2.14 µM), 6 µg/mL (≈ 12.8 µM) and 6 µg/mL (≈ 12.8 µM).
In the same order, the values of `NC[C@H]1O[C@H](O[C@H]2[C@H](O)[C@@H](O)[C@H](N)C[C@@H]2N)[C@H](N)[C@@H](O)[C@@H]1O` [NEAMINE] are 512 µg/mL (≈ 1590 µM), 96 µg/mL (≈ 298 µM) and 1540 µg/mL (≈ 4760 µM).
In the same order, the values of `NCC[C@H](O)C(=O)N[C@@H]1C[C@H](N)[C@@H](O[C@H]2O[C@H](CN)[C@@H](O)[C@H](O)[C@H]2O)[C@H](O)[C@H]1O[C@H]1O[C@H](CO)[C@@H](O)[C@H](N)[C@H]1O` [AMIKACIN] are 3 µg/mL (≈ 5.12 µM), 12 µg/mL (≈ 20.5 µM) and 12 µg/mL (≈ 20.5 µM).
Turning to `NC[C@@H]1O[C@@H](O[C@H]2[C@H](O)[C@@H](O[C@H]3O[C@H](CO)[C@@H](O)[C@H](N)[C@H]3O)[C@H](N)C[C@@H]2N)[C@@H](O)[C@H](O)[C@H]1O` [KANAMYCIN A], the figures for the MIC against Pseudomonas aeruginosa, in the experiment on Escherichia coli [1] and against Escherichia coli [2] were 256 µg/mL (≈ 528 µM), 12 µg/mL (≈ 24.8 µM) and 768 µg/mL (≈ 1590 µM), respectively.
Take `NC[C@H]1O[C@H](O[C@H]2[C@H](O[C@@H]3O[C@H](CO)[C@@H](O)[C@H]3O)[C@@H](O)[C@H](N)C[C@@H]2N)[C@H](N)[C@@H](O)[C@@H]1O` [RIBOSTAMYCIN]: the minimum inhibitory concentration (MIC) against Pseudomonas aeruginosa is 384 µg/mL (≈ 845 µM); with Escherichia coli [1], 12 µg/mL (≈ 26.4 µM); with Escherichia coli [2] it was 768 µg/mL (≈ 1690 µM).

Values taken from ChEMBL document CHEMBL1142160, “Overexpression and initial characterization of the chromosomal aminoglycoside 3'-O-phosphotransferase APH(3')-IIb from Pseudomonas aeruginosa” (2007).
